Test results taken from PubChem BioAssay AID330 (DTP/NCI, 2004).
Several values for one entry are separate records, joined by “and”; a condition that tells them apart may be missing. Equal values may be shown once. Inconclusive results and toxic doses are left out. The calls were made as follows: active = survival T/C of 150% or more; inactive = T/C below 125% in these data.

Tested on: P388 leukemia ip, CD2F1 mice, survival T/C
Assay: NCI In Vivo Anticancer Drug Screen. Data for tumor model P388 Leukemia (intraperitoneal) in CD2F1 (CDF1) mice
Conditions: endpoint: median survival time, higher = longer survival
Method in brief: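 Mice carrying the transplanted tumor received test compound or vehicle. Survival was recorded in each group, and the value is the treated-group measurement divided by that of the vehicle-treated control group.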

[1] = dose: 50.0 mg/kg/injection, schedule: Q01DX005 (ip), vehicle: saline with Tween-80
[2] = dose: 50.0 mg/kg/injection, schedule: Q01DX005 (ip), vehicle: Klucel (hydroxypropylcellulose) (HPC)
[3] = dose: 100.0 mg/kg/injection, schedule: Q01DX005 (ip), vehicle: Klucel (hydroxypropylcellulose) (HPC)
[4] = dose: 50.0 mg/kg/injection, schedule: Q01DX009 (ip), vehicle: Klucel (hydroxypropylcellulose) (HPC)

Measured: T/C

COc1cc(C[C@H]2c3cc(OC)c(OC)cc3CCN2C)c(Oc2cc3c(cc2OC)-c2c(OC)c(OC)cc4c2[C@H](C3)N(C)CC4)cc1OC
inactive: dose: 2.5 mg/kg/injection, schedule: Q03HX016 (ip), vehicle: saline 90 % of control | dose: 2.5 mg/kg/injection, schedule: Q03HX024 (ip), vehicle: saline 95 % of control | dose: 5.0 mg/kg/injection, schedule: Q03HX008 (ip), vehicle: saline 91 % of control | dose: 5.0 mg/kg/injection, schedule: Q03HX016 (ip), vehicle: saline 100 % of control | dose: 5.0 mg/kg/injection, schedule: Q03HX024 (ip), vehicle: saline 95 % of control | dose: 6.25 mg/kg/injection, schedule: Q01DX009 (ip), vehicle: saline 90 % of control | dose: 10.0 mg/kg/injection, schedule: Q01DX009 (ip), vehicle: distilled water + Tween-80 96 % of control | dose: 10.0 mg/kg/injection, schedule: Q03HX008 (ip), vehicle: saline 95 % of control | dose: 10.0 mg/kg/injection, schedule: Q03HX016 (ip), vehicle: saline 100 % of control | dose: 10.0 mg/kg/injection, schedule: Q03HX024 (ip), vehicle: saline 95 % of control | dose: 12.5 mg/kg/injection, schedule: Q01DX009 (ip), vehicle: saline 104 % of control | dose: 12.5 mg/kg/injection, schedule: Q01DX009 (oral), vehicle: saline 100 % of control | dose: 20.0 mg/kg/injection, schedule: Q01DX009 (ip), vehicle: distilled water + Tween-80 92 % of control | dose: 20.0 mg/kg/injection, schedule: Q03HX008 (ip), vehicle: saline 100 % of control | dose: 20.0 mg/kg/injection, schedule: Q03HX016 (ip), vehicle: saline 100 % of control | dose: 20.0 mg/kg/injection, schedule: Q03HX024 (ip), vehicle: saline 100 % of control | dose: 25.0 mg/kg/injection, schedule: Q01DX009 (ip), vehicle: saline 109 % of control | dose: 25.0 mg/kg/injection, schedule: Q01DX009 (oral), vehicle: saline 100 % of control | dose: 25.0 mg/kg/injection, schedule: Q04DX003 (ip), vehicle: saline 100 % of control | dose: 25.0 mg/kg/injection, schedule: Q08DX002 (ip), vehicle: saline 100 % of control | dose: 40.0 mg/kg/injection, schedule: Q01DX009 (ip), vehicle: distilled water + Tween-80 92 % of control | dose: 40.0 mg/kg/injection, schedule: Q03HX008 (ip), vehicle: saline 100 % of control | dose: 40.0 mg/kg/injection, schedule: Q03HX016 (ip), vehicle: saline 109 % of control | dose: 40.0 mg/kg/injection, schedule: Q03HX024 (ip), vehicle: saline 95 % of control | dose: 50.0 mg/kg/injection, schedule: Q01DX001 (ip), vehicle: saline 91 % of control | dose: 50.0 mg/kg/injection, schedule: Q01DX009 (ip), vehicle: saline 104 % of control | dose: 50.0 mg/kg/injection, schedule: Q01DX009 (oral), vehicle: saline 100 % of control | dose: 50.0 mg/kg/injection, schedule: Q04DX003 (ip), vehicle: saline 100 % of control | dose: 50.0 mg/kg/injection, schedule: Q08DX002 (ip), vehicle: saline 100 % of control | dose: 80.0 mg/kg/injection, schedule: Q01DX009 (ip), vehicle: distilled water + Tween-80 101 % of control | dose: 80.0 mg/kg/injection, schedule: Q03HX008 (ip), vehicle: saline 100 % of control | dose: 100.0 mg/kg/injection, schedule: Q01DX001 (ip), vehicle: saline 91 % of control | dose: 100.0 mg/kg/injection, schedule: Q01DX001 (oral), vehicle: saline 104 % of control | dose: 100.0 mg/kg/injection, schedule: Q01DX009 (ip), vehicle: saline 100 % of control | dose: 100.0 mg/kg/injection, schedule: Q01DX009 (oral), vehicle: saline 100 % of control | dose: 100.0 mg/kg/injection, schedule: Q04DX003 (ip), vehicle: saline 109 % of control | dose: 100.0 mg/kg/injection, schedule: Q08DX002 (ip), vehicle: saline 100 % of control | dose: 200.0 mg/kg/injection, schedule: Q01DX001 (ip), vehicle: saline 91 % of control | dose: 200.0 mg/kg/injection, schedule: Q01DX001 (oral), vehicle: saline 95 % of control | dose: 200.0 mg/kg/injection, schedule: Q01DX009 (oral), vehicle: saline 95 % of control | dose: 200.0 mg/kg/injection, schedule: Q04DX003 (ip), vehicle: saline 109 % of control | dose: 200.0 mg/kg/injection, schedule: Q08DX002 (ip), vehicle: saline 100 % of control | dose: 400.0 mg/kg/injection, schedule: Q01DX001 (ip), vehicle: saline 91 % of control | dose: 400.0 mg/kg/injection, schedule: Q01DX001 (oral), vehicle: saline 95 % of control | dose: 400.0 mg/kg/injection, schedule: Q08DX002 (ip), vehicle: saline 100 % of control | dose: 800.0 mg/kg/injection, schedule: Q01DX001 (ip), vehicle: saline 100 % of control | dose: 800.0 mg/kg/injection, schedule: Q01DX001 (oral), vehicle: saline 95 % of control | dose: 1600.0 mg/kg/injection, schedule: Q01DX001 (oral), vehicle: saline 104 % of control

NC(=O)c1csc(-c2ccc(CO)o2)n1
inactive: [1] 95 % of control | dose: 100.0 mg/kg/injection, schedule: Q01DX005 (ip), vehicle: saline with Tween-80 86 % of control

COc1cc(C2c3cc4c(cc3CCN2C(=O)c2ccccc2)OCO4)cc(OC)c1OC (stereo unspecified)
inactive: [2] 93 % of control | [3] 91 % of control | dose: 200.0 mg/kg/injection, schedule: Q01DX005 (ip), vehicle: Klucel (hydroxypropylcellulose) (HPC) 93 % of control

CCOC(=O)c1cn[nH]c1N
inactive: dose: 25.0 mg/kg/injection, schedule: Q01DX009 (ip), vehicle: Klucel (hydroxypropylcellulose) (HPC) 108 % of control | [4] 93 % of control

O=S(=O)(Nc1ccn(-c2ccccc2)n1)c1ccc(NCc2c3ccccc3nc3cc(Cl)ccc23)cc1
inactive: dose: 60.0 mg/kg/injection, schedule: Q01DX005 (ip), vehicle: saline with Tween-80 99 % of control | dose: 120.0 mg/kg/injection, schedule: Q01DX005 (ip), vehicle: saline with Tween-80 91 % of control | dose: 240.0 mg/kg/injection, schedule: Q01DX005 (ip), vehicle: saline with Tween-80 93 % of control

CC(=O)OC1C2CCC3C(C)(O)C4CC(O)C(C)(C)C4(O)C(O)CC13CC2(C)O (stereo unspecified)
inactive: dose: 0.09 mg/kg/injection, schedule: Q01DX009 (ip), vehicle: saline 100 % of control | dose: 0.19 mg/kg/injection, schedule: Q01DX009 (ip), vehicle: saline 98 % of control | dose: 0.25 mg/kg/injection, schedule: Q01DX009 (ip), vehicle: saline 116 % of control | dose: 0.39 mg/kg/injection, schedule: Q01DX009 (ip), vehicle: saline 100 % of control and 89 % of control | dose: 0.5 mg/kg/injection, schedule: Q01DX009 (ip), vehicle: saline 108 % of control | dose: 1.0 mg/kg/injection, schedule: Q01DX009 (ip), vehicle: saline 107 % of control

CCOc1ccc(/C=C/C(C)=N/NC(N)=Nc2ccc(Cl)cc2)cc1
inactive: dose: 12.5 mg/kg/injection, schedule: Q01DX005 (ip), vehicle: saline with Tween-80 96 % of control | dose: 25.0 mg/kg/injection, schedule: Q01DX005 (ip), vehicle: saline with Tween-80 97 % of control | [1] 107 % of control and 97 % of control

CC(=O)Nc1c(Br)cc(C)cc1Br
inactive: [4] 94 % of control | dose: 100.0 mg/kg/injection, schedule: Q01DX009 (ip), vehicle: Klucel (hydroxypropylcellulose) (HPC) 102 % of control | dose: 200.0 mg/kg/injection, schedule: Q01DX009 (ip), vehicle: Klucel (hydroxypropylcellulose) (HPC) 100 % of control

c1c[nH]c2c3ccncc3c3ncnc3c2c1
inactive: [2] 97 % of control | [3] 88 % of control

O=C(O)c1cn2ccccc2c1[N+](=O)[O-]
inactive: dose: 100.0 mg/kg/injection, schedule: Q04DX002 (ip), vehicle: saline with Tween-80 94 % of control | dose: 200.0 mg/kg/injection, schedule: Q04DX002 (ip), vehicle: saline with Tween-80 92 % of control | dose: 400.0 mg/kg/injection, schedule: Q04DX002 (ip), vehicle: saline with Tween-80 96 % of control

COC(=O)C1CC(C)C1(OC)OC (stereo unspecified)
inactive: dose: 60.0 mg/kg/injection, schedule: Q01DX005 (ip), vehicle: saline 106 % of control | dose: 120.0 mg/kg/injection, schedule: Q01DX005 (ip), vehicle: saline 107 % of control | dose: 240.0 mg/kg/injection, schedule: Q01DX005 (ip), vehicle: saline 101 % of control

Cc1ccc(-c2nc3ccccc3c(=O)n2C(C)C)cc1
inactive: dose: 50.0 mg/kg/injection, schedule: Q01DX009 (ip), vehicle: saline with Tween-80 100 % of control | dose: 100.0 mg/kg/injection, schedule: Q01DX009 (ip), vehicle: saline with Tween-80 98 % of control | dose: 200.0 mg/kg/injection, schedule: Q01DX009 (ip), vehicle: saline with Tween-80 87 % of control
